In general, IC50 refers to the point on the concentration scale where inhibition reaches its midpoint.

Experiment [1] is filed under the species Rattus norvegicus. Nature of the experiment: Incorporation of [14C]- acetate into sterols measured in rat liver. The experiment is classed as functional, organism-based.
A short description of experiment [2]: IC50 ratio evaluated as the IC50 values of testis to that of liver. Format: functional. Further details: reference not given here.
Experiment [3] has as its target T1, 3-hydroxy-3-methylglutaryl-coenzyme A reductase (Rattus norvegicus, UniProt P51639).
T1 sequence (P51639 whole entry): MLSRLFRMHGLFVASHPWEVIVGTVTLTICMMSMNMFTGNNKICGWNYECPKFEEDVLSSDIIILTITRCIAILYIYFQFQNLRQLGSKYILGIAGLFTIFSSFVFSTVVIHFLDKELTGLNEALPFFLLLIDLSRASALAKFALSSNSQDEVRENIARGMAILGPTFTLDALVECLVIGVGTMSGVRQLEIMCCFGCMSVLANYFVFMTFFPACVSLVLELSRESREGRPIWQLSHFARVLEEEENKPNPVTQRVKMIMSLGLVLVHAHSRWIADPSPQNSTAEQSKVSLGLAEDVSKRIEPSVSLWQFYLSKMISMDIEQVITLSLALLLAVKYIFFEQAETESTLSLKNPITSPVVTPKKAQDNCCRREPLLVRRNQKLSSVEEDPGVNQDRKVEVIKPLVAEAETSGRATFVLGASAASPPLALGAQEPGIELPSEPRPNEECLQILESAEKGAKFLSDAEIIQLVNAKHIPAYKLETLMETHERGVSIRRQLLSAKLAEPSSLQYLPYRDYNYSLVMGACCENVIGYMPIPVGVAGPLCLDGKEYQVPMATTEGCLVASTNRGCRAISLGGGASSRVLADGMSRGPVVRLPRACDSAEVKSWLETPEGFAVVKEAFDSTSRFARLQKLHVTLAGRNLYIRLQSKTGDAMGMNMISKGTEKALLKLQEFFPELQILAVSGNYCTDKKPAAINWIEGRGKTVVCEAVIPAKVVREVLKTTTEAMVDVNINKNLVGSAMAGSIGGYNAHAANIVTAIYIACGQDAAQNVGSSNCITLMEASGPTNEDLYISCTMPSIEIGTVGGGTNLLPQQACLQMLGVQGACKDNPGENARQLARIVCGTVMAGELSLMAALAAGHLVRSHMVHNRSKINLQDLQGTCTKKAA
The experiment is described as follows: Ability to inhibit microsomal preparation of HMG-CoA reductase in rat liver.

Experiment [4] is described as follows: IC50 ratio evaluated as the IC50 values of spleen to that of liver. Format: functional. The arrangement: reference not given here.
For experiment [5], the species on record is Rattus norvegicus. Nature of the experiment: Incorporation of [14C]- acetate into sterols measured in rat spleen. The experiment is classed as functional, organism-based.
For experiment [6], the species on record is Rattus norvegicus. The experiment is described as follows: Incorporation of [14C]- acetate into sterols measured in rat testis. The experiment is classed as functional, organism-based.
Experiment [7] is filed under the species Rattus norvegicus. The experiment is described as follows: Compound was tested for its effect on the incorporation of [14C]- acetate into sterols measured rat liver. The experiment is classed as functional, organism-based.
Experiment [8] is filed under the species Rattus norvegicus. The experiment is described as follows: Compound was tested for its effect on the incorporation of [14C]- acetate into sterols measured rat testis. The experiment is classed as functional, organism-based.
The species named for experiment [9] is Rattus norvegicus. Nature of the experiment: Compound was tested for its effect on the incorporation of [14C]- acetate into sterols measured rat spleen. Format: functional, organism-based.

For `CC[C@H](C)C(=O)O[C@H]1C[C@H](O)C=C2C=C[C@H](C)[C@H](CC[C@@H](O)C[C@@H](O)CC(=O)[O-])[C@H]21.[Na+]` [PRAVASTATIN SODIUM], the IC50 is 0.141 µM in experiment [1], 0.04 µM in [3], 0.228 µM in experiment [5] and 0.329 µM in experiment [6]. Also, the results for the IC50 ratio in experiment [2] and in [4] were 2.3 and 1.6, respectively.

As for `Cc1cc(-c2ccc(F)cc2)c(/C=C/[C@@H](O)C[C@@H](O)CC(=O)[O-])c(C(C)C)[n+]1[O-].[Na+]`, the IC50 ratio came out at 39.9 in experiment [2] and 14.8 in experiment [4]. In addition, the IC50 was 0.0094 µM in experiment [3], 0.018 µM in experiment [7], 0.718 µM in experiment [8] and 0.266 µM in experiment [9].

As to `Cc1cc(C)c(OC[C@@H](O)C[C@@H](O)CC(=O)[O-])c(C2CCCCCC2)c1.[Na+]`, the IC50 is 5.17 µM in experiment [1], 0.141 µM in experiment [3], 0.108 µM in experiment [5] and 0.063 µM in experiment [6]. Further, the IC50 ratio came to 0.01 in experiment [2] and 0.02 in experiment [4].

For `Cc1ccc(-c2ccc(C(C)C)c(OC[C@@H](O)C[C@@H](O)CC(=O)[O-])c2-c2ccc(F)cc2)cc1.[Na+]`, the IC50 in experiment [1] came to 6.04 µM; in [3], 0.1 µM; in experiment [5] it was 0.375 µM; in [6], 0.511 µM. Moreover, the figures for the IC50 ratio in [2] and in [4] were 0.08 and 0.06, respectively.

For the molecule `CC(C)c1nc(-c2ccccc2)cc(-c2ccc(F)cc2)c1/C=C/[C@@H](O)C[C@@H](O)CC(=O)[O-].[Na+]`, the IC50 in experiment [1] came out at 8.07 µM; in experiment [3], 0.002 µM; in experiment [5] it was 0.077 µM; in experiment [6] it was 0.016 µM. Further, the results for the IC50 ratio in experiment [2] and in experiment [4] were 0.002 and 0.01, respectively.

As to `CC(C)n1c(/C=C/C(O)CC(O)CC(=O)O)c(-c2ccc(F)cc2)c2ccccc21` (stereo unspecified) [FLUVASTATIN SODIUM], the 50% inhibitory concentration (IC50) in experiment [1] turned out to be 0.142 µM; in [5], 0.292 µM; in experiment [6] it was 0.004 µM.

For the molecule `CC(C)c1nn(-c2ccccc2)c(-c2ccc(F)cc2)c1/C=C/[C@@H](O)C[C@@H](O)CC(=O)[O-].[Na+]`, the 50% inhibitory concentration (IC50) was 0.034 µM in experiment [1], 0.0072 µM in [3], 0.012 µM in [5] and 0.008 µM in experiment [6]. For the same molecule, the IC50 ratio in experiment [2] is 0.24; in [4] it was 0.35.

For the molecule `CC(C)c1nc2ccc(Cl)cc2c(-c2ccc(F)cc2)c1/C=C/[C@@H](O)C[C@@H](O)CC(=O)[O-].[Na+]`, the half-maximal inhibitory concentration (IC50) in [1] turned out to be 6.28 µM; in [3], 0.48 µM; in experiment [5] it was 0.092 µM; in experiment [6] it was 0.184 µM. Moreover, the IC50 ratio in [2] amounted to 0.03; in experiment [4] it was 0.02.

Take `Cc1cc(-c2ccc(F)cc2)c(/C=C/[C@@H](O)C[C@@H](O)CC(=O)[O-])c(C(C)C)n1.[Na+]`: the IC50 in [1] worked out at 0.071 µM; in experiment [3], 0.0077 µM; in experiment [6], 0.017 µM; in experiment [9], 0.009 µM. Also, the IC50 ratio in experiment [2] came out at 0.24; in [4], 0.13.

On to `Cn1nnnc1C(/C=C/[C@@H](O)C[C@@H](O)CC(=O)[O-])=C(c1ccc(F)cc1)c1ccc(F)cc1.[Na+]`, for which the IC50 is 0.108 µM in experiment [1], 0.013 µM in [3], 1.58 µM in experiment [5] and 0.638 µM in experiment [6]. Also, the results for the IC50 ratio in experiment [2] and in experiment [4] were 5.9 and 14.6, respectively.

`CC(C)c1nn(-c2ccccn2)c(-c2ccc(F)cc2)c1/C=C/[C@@H](O)C[C@@H](O)CC(=O)[O-].[Na+]`: the half-inhibitory concentration (IC50) in experiment [1] amounted to 0.017 µM; in experiment [3], 0.01 µM; in experiment [5], 0.029 µM; in [6] it was 0.082 µM. Besides, the values for the IC50 ratio in [2] and in [4] were 4.8 and 1.7, respectively.

As for `CC(C)c1c(Br)c(Br)c(-c2ccc(F)cc2)n1CC[C@@H](O)C[C@@H](O)CC(=O)[O-].[Na+]`, the IC50 worked out at 2.73 µM in experiment [1], 0.026 µM in [3], 0.14 µM in experiment [5] and 0.024 µM in [6]. The IC50 ratio in [2] is 0.009; in [4], 0.05.

As for `CC[C@H](C)C(=O)O[C@H]1C[C@H](C)C=C2C=C[C@H](C)[C@H](CC[C@@H]3C[C@@H](O)CC(=O)O3)[C@H]21`, the IC50 in experiment [1] is 0.028 µM; in [3], 0.013 µM; in [5], 0.005 µM; in experiment [6], 0.004 µM. Moreover, the IC50 ratio came out at 0.14 in [2] and 0.17 in experiment [4].

For `CC(C)c1nn(-c2cnccn2)c(-c2ccc(F)cc2)c1/C=C/[C@@H](O)C[C@@H](O)CC(=O)[O-].[Na+]`, the IC50 was 0.01 µM in [1], 0.0066 µM in [3], 0.02 µM in [5] and 0.064 µM in experiment [6]. Also, the IC50 ratio in experiment [2] is listed as 6.4; in experiment [4], 2.

Values taken from ChEMBL document CHEMBL1125752, “Relationship between tissue selectivity and lipophilicity for inhibitors of HMG-CoA reductase” (J Med Chem, 1991).
